The record followed here is patent US20050004177A1, “Combination of an allosteric inhibitor of matrix metalloproteinase-13 and a ligand to an alpha-2-delta receptor” (WARNER-LAMBERT COMPANY LLC, priority 2003, published 2005).

SMILES strings stand for the structures.

A word on the melting point: it is the temperature, or range, at which the solid turns liquid. As for `O=C(O)c1ccc(Cn2nnc(-c3cccc(C#CCc4ccccc4)c3)n2)cc1` [Preparation 2, 4-{5-[3-(3-Phenyl-prop-1-ynyl)-phenyl]-tetrazol-2-ylmethyl}-benzoic acid], the melting point fell in the range of 195 to 198 °C.
